Results taken from PubChem BioAssay (NCI).
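Method: 48-hour compound exposure of cells in 96-well plates, five concentrations, linear interpolation of endpoints. TGI is the concentration that stops growth completely.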

Tests used:
Assay in all cases: growth of human tumour cells (NCI), 48 h
NCI-H460 lung = system: NCI-H460 lung
NCI/ADR-RES ovarian = system: NCI/ADR-RES ovarian
OVCAR-4 ovarian = system: OVCAR-4 ovarian
PC-3 prostate = system: PC-3 prostate
RXF 393 renal = system: RXF 393 renal
SK-MEL-5 melanoma = system: SK-MEL-5 melanoma
SK-OV-3 ovarian = system: SK-OV-3 ovarian
SNB-19 CNS = system: SNB-19 CNS
UO-31 renal = system: UO-31 renal
HCC-2998 colon = system: HCC-2998 colon
NCI-H226 lung = system: NCI-H226 lung

Row | Compound | TGI (NCI-H460 lung) [µM] | TGI (NCI/ADR-RES ovarian) [µM] | TGI (OVCAR-4 ovarian) [µM] | TGI (PC-3 prostate) [µM] | TGI (RXF 393 renal) [µM] | TGI (SK-MEL-5 melanoma) [µM] | TGI (SK-OV-3 ovarian) [µM] | TGI (SNB-19 CNS) [µM] | TGI (UO-31 renal) [µM] | TGI (HCC-2998 colon) [µM] | TGI (NCI-H226 lung) [µM]
1 | O=C(NN=C1CCCCC1)NN=C1CCCCC1 | > 100 | > 100 | > 100 | > 100 | > 100 | > 100 | > 100 | > 100 | > 100 |  | 
2 | O=C1C[C@H](c2ccc(O)c(O)c2)Oc2cc(O)cc(O)c21 | > 100 |  | > 100 |  | > 100 | > 100 | > 100 | > 100 | > 100 | > 100 | > 100
3 | N=C(c1cccs1)C1(N2CCCCC2)CCCCC1 | 30 | 44.7 | 54.9 | 81.8 | 29.5 |  | 46.8 | 34.8 | 30.5 | 27.1 | 
4 | OCC(O)C(O)C(O)C(O)/C=N/Nc1nc(O)c(/C=C2\C=Nc3ccccc32)[nH]1 (configuration not stated) | > 100 | > 100 | > 100 | 97.5 | > 100 | > 100 | > 100 | > 100 |  | > 100 | > 100
5 | CN(C)c1ccc(/C=c2/c3cc([N+](=O)[O-])ccc3n3c2cc(-c2ccccc2)[n+]3C)cc1 | 11.7 | > 100 | 8.33 | 7.27 |  | 1.11 | 11.3 | 3.84 | 23 | 7.55 | 36
6 | CC1CN=C(c2ccc(COc3ccc(C4=NCC(C)N4)cc3)cc2)N1 (configuration not stated) | > 100 | > 100 | > 100 | > 100 | > 100 | > 100 | > 100 | > 100 | > 100 | > 100 | 
7 | CCCC1(N)CC(OC)OC(C)C1O (configuration not stated) | > 100 | > 100 |  | > 100 | > 100 | > 100 | > 100 | > 100 | > 100 | > 100 | > 100
8 | C=CCC(SC)C1=C(C)C(=O)c2ccccc21 (configuration not stated) | > 10 |  |  | > 10 | > 10 | > 10 | > 10 | > 10 | > 10 | > 10 | > 10
9 | CN(CCO)/N=N/c1[nH]ncc1C(N)=O | > 100 | > 100 | > 100 |  | > 100 | > 100 | > 100 | > 100 | > 100 | > 100 | > 100
10 | CC(C)c1cccc(C(C)C)c1OS(=O)(=O)NC(=O)OC(C(F)(F)F)C(F)(F)F | > 100 | > 100 | > 100 | > 100 |  | > 100 | > 100 | > 100 | > 100 | > 100 | > 100
11 | COc1ccc(N2C(=O)C3CC4=CC(=O)C[C@H]4[C@H]32)cc1 (some centres not stated) | > 100 | > 100 | > 100 | > 100 | > 100 |  | > 100 | > 100 | > 100 | > 100 | > 100
12 | c1ccc(C2[C@@H]3CCCc4ccccc4C3=NN2c2ccccc2)cc1 (some centres not stated) | > 100 |  | > 100 |  | > 100 | 47.1 |  | > 100 | > 100 | > 100 | > 100
13 | CC(=O)OCC1OC(N2C(S)=C(C#N)C(c3ccco3)C(C(C)=O)=C2c2ccccc2)C(OC(C)=O)C(OC(C)=O)C1OC(C)=O (configuration not stated) | > 100 | > 100 | 44.8 | > 100 | > 100 | > 100 |  | > 100 | 91.4 | > 100 | > 100
14 | OC(c1ccccc1)(c1cccnc1)C(O)(c1ccccc1)c1cccnc1 (configuration not stated) | > 100 | > 100 |  | > 100 | > 100 | > 100 | > 100 | > 100 | > 100 |  | > 100
15 | C=CC(Br)(CBr)CCC(Br)C(C)C (configuration not stated) | 18.4 | 33.8 | 17.9 | 19.5 | 20.3 | 17.7 | 30.2 | 23.4 | 26.3 |  | 30.8
16 | COc1ccccc1NS(=O)(=O)c1ccc2ncn(NS(=O)(=O)c3ccc(Cl)cc3)c(=O)c2c1 | > 100 | > 100 | > 100 | > 100 |  |  | > 100 | > 100 | > 100 | > 100 | > 100
17 | CN1C(=O)N(C)C2(CCN(CCCCCCF)CC2)C1=O |  | > 100 |  | > 100 | > 100 | > 100 | > 100 | > 100 | > 100 | > 100 | > 100
18 | Brc1cccc[n+]1-c1ccc2cc(-[n+]3ccccc3Br)ccc2c1 | > 100 | > 100 |  | > 100 | 87.6 | > 100 | 55.6 | > 100 | 38.5 | > 100 | > 100
19 | COc1ccccc1NCC(=O)Nn1c(C)nc2ccc(S(=O)(=O)Nc3ccccc3OC)cc2c1=O | > 100 | > 100 | > 100 | > 100 |  |  | > 100 | > 100 | > 100 | > 100 | > 100
20 | CCCCNC(=S)Nc1nc(C(=O)NNC(=O)c2ccccc2)cs1 |  | 64.2 | > 100 | 39.7 |  | 22.7 | 35.3 |  | 28.5 | 27.5 | 67.8
21 | Cc1cccc(NC2=NCCO2)c1Cl | > 100 | > 100 | > 100 |  | > 100 | > 100 | > 100 | > 100 | > 100 | > 100 | > 100
22 | COc1ccc(C2C(Cl)C(=O)N2NC(=O)Cc2ccccc2)cc1OC (configuration not stated) | > 100 |  | > 100 |  | > 100 | > 100 | > 100 | > 100 | > 100 | > 100 | > 100
